US9751869B2, “LXR modulators” (BRISTOL-MYERS SQUIBB COMPANY, priority 2013, dated 2017)

Biological target: T1, LXRβ (Homo sapiens, UniProt P55055)
T1 construct: Co-transfection expression plasmids, comprising full-length LXRα (pCMX-h LXRα or LXRβ (pCMX-hLXRβ)); expressed in transfected cells; host or cells: CV-1 African green monkey kidney cells, transient transfection with pCMX-hLXRβ
T1 sequence (P55055 1-460): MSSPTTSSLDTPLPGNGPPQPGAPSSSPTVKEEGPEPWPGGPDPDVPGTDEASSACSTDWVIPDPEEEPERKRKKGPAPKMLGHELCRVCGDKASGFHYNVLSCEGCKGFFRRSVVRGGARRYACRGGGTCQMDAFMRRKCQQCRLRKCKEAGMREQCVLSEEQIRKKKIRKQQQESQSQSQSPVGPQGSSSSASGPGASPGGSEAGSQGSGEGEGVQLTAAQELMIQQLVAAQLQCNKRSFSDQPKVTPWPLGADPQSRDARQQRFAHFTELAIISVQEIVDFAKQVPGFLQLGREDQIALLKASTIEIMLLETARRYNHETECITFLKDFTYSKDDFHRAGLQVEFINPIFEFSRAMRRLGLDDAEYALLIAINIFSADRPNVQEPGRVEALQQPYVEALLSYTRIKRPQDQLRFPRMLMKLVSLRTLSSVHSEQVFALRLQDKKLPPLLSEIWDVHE
T1 sequence (P19793 1-462 partner): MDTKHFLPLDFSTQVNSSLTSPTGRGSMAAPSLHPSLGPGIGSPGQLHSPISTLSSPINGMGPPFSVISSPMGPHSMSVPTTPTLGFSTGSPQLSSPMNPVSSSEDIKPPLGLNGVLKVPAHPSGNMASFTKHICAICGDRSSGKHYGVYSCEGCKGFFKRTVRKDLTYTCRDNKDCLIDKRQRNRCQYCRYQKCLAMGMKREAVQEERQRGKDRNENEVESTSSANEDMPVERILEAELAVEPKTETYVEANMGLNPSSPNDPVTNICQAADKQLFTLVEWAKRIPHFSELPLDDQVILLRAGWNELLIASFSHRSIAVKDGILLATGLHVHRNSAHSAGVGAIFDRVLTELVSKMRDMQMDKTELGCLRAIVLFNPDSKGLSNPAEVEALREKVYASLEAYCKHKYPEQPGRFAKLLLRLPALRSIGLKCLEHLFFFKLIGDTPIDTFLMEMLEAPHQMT
Test: LXR/LXRE co-transfection assay (luciferase reporter) in CV-1 cells, LXRβ
Type: cell-based
Conditions: for EC50: CV-1 cells transfected with pCMX-hLXRβ and LXREx1-Tk-Luciferase, 20 hours incubation, read-out: LXRbeta agonism EC50; for Emax: CV-1 cells, relative to maximum response of high control N-(3-((4-fluorophenyl)-(naphthalene-2-sulfonyl)amino)propyl)-2,2-dimethylpropionamide, read-out: LXRbeta % EFFICACY
In short: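 Luciferase read-out after 20 h compound treatment at 37 °C of CV-1 cells carrying transfected hLXRβ plus one-copy LXRE reporter, endogenous RXR partnering. Sigmoidal fit of 10-point half-log curves (4 wells each) gave EC50; % efficacy versus maximal response of the propionamide reference agonist.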

SMILES	EC50	Emax
Cc1nc(-c2ccc(OC(F)F)nc2)c(-c2cc(-c3cc(F)c(CO)c(S(C)(=O)=O)c3)ccc2-n2cc(Cl)c(C(F)(F)F)n2)o1 [Example 426, (4′-(4-chloro-3-(trifluoromethyl)-1H-pyrazol-1-yl)-3′-(4-(6-(difluoromethoxy)pyridin-3-yl)-2-methyloxazol-5-yl)-3-fluoro-5-(methylsulfonyl)-[1,1′-biphenyl]-4-yl) methanol]	8 nM	72%
COc1ncc(-c2nc(C)oc2-c2cc(-c3cccc(S(C)(=O)=O)c3)ccc2-n2cc(Cl)c(C(F)(F)F)n2)cn1 [Example 427, 5-(4-(4-chloro-3-(trifluoromethyl)-1H-pyrazol-1-yl)-3′-(methylsulfonyl)-[1,1′-biphenyl]-3-yl)-4-(2-methoxypyrimidin-5-yl)-2-methyloxazole]	94 nM	58%
COc1ncc(-c2nc(C)oc2-c2cc(-c3cc(F)c(CO)c(S(C)(=O)=O)c3)ccc2-n2cc(Cl)c(C(F)(F)F)n2)cn1 [Example 428, (4′-(4-chloro-3-(trifluoromethyl)-1H-pyrazol-1-yl)-3-fluoro-3′-(4-(2-methoxypyrimidin-5-yl)-2-methyloxazol-5-yl)-5-(methylsulfonyl)-[1,1′-biphenyl]-4-yl)methanol]	93 nM	83%
Cc1nc(-c2ccc(OC(F)(F)F)cc2)c(-c2cc(-c3cccc(C(C)(C)C#N)c3)ccc2-n2cc(Cl)c(C(F)(F)F)n2)o1 [Example 429, 2-(4′-(4-chloro-3-(trifluoromethyl)-1H-pyrazol-1-yl)-3′-(2-methyl-4-(4-(trifluoromethoxy)phenyl)oxazol-5-yl)-[1,1′-biphenyl]-3-yl)-2-methylpropanenitrile]	348 nM	60%
Cc1nc(-c2ccc(OC(F)(F)F)cc2)c(-c2cc(-c3cccc(C(C)(C)C(N)=O)c3)ccc2-n2cc(Cl)c(C(F)(F)F)n2)o1 [Example 430, 2-(4′-(4-chloro-3-(trifluoromethyl)-1H-pyrazol-1-yl)-3′-(2-methyl-4-(4-(trifluoromethoxy)phenyl)oxazol-5-yl)-[1,1′-biphenyl]-3-yl)-2-methylpropanamide]	41 nM	80%
Cc1nc(-c2ccc(OC(F)F)cc2Cl)c(-c2cc(-c3cccc(S(C)(=O)=O)c3)ccc2-n2cc(Cl)c(C(F)(F)F)n2)o1 [Example 431]	37 nM	69%
Cc1nc(-c2ccc(OC(F)F)cc2Cl)c(-c2cc(-c3cc(F)c(CO)c(S(C)(=O)=O)c3)ccc2-n2cc(Cl)c(C(F)(F)F)n2)o1 [Example 432, (4′-(4-chloro-3-(trifluoromethyl)-1H-pyrazol-1-yl)-3′-(4-(2-chloro-4-(difluoromethoxy)phenyl)-2-methyloxazol-5-yl)-3-fluoro-5-(methylsulfonyl)-[1,1′-biphenyl]-4-yl)methanol]	19 nM	79%
Cc1nc(-c2ccc(OC(F)F)c(F)c2)c(-c2cc(-c3cccc(S(C)(=O)=O)c3)ccc2-n2cc(Cl)c(C(F)(F)F)n2)o1 [Example 433]	50 nM	83%
Cc1nc(-c2ccc(OC(F)F)c(F)c2)c(-c2cc(-c3cc(F)c(CO)c(S(C)(=O)=O)c3)ccc2-n2cc(Cl)c(C(F)(F)F)n2)o1 [Example 434, (4′-(4-chloro-3-(trifluoromethyl)-1H-pyrazol-1-yl)-3′-(4-(4-(difluoromethoxy)-3-fluorophenyl)-2-methyloxazol-5-yl)-3-fluoro-5-(methylsulfonyl)-[1,1′-biphenyl]-4-yl)methanol]	13 nM	78%
Cc1nc(-c2ccc(OC(F)F)cc2)c(-c2cc(-c3cccc(S(C)(=O)=O)c3)ccc2-n2ccc(C(F)(F)F)n2)o1 [Example 435, 4-(4-(difluoromethoxy)phenyl)-2-methyl-5-(3′-(methylsulfonyl)-4-(3-(trifluoromethyl)-1H-pyrazol-1-yl)-[1,1′-biphenyl]-3-yl)oxazole]	30 nM	53%
Cc1nc(-c2ccc(OC(F)F)cc2)c(-c2cc(-c3cc(F)c(CO)c(S(C)(=O)=O)c3)ccc2-n2ccc(C(F)(F)F)n2)o1 [Example 436, (3′-(4-(4-(difluoromethoxy)phenyl)-2-methyloxazol-5-yl)-3-fluoro-5-(methylsulfonyl)-4′-(3-(trifluoromethyl)-1H-pyrazol-1-yl)-[1,1′-biphenyl]-4-yl)methanol]	6 nM	61%
Cc1nc(-c2ccc(C(F)(F)F)cc2)c(-c2cc(-c3cccc(S(C)(=O)=O)c3)ccc2-n2cc(Cl)c(C(F)(F)F)n2)o1 [Example 437, 5-(4-(4-chloro-3-(trifluoromethyl)-1H-pyrazol-1-yl)-3′-(methylsulfonyl)-[1,1′-biphenyl]-3-yl)-2-methyl-4-(4-(trifluoromethyl)phenyl)oxazole]	321 nM	49%
Cc1nc(-c2ccc(C(F)(F)F)cc2)c(-c2cc(-c3cc(F)c(CO)c(S(C)(=O)=O)c3)ccc2-n2cc(Cl)c(C(F)(F)F)n2)o1 [Example 438, (4′-(4-chloro-3-(trifluoromethyl)-1H-pyrazol-1-yl)-3-fluoro-3′-(2-methyl-4-(4-(trifluoromethyl)phenyl)oxazol-5-yl)-5-(methylsulfonyl)-[1,1′-biphenyl]-4-yl)methanol]	128 nM	70%
Cc1nc(-c2ccc(OC(F)(F)F)cc2)c(-c2cc(-c3cc(F)c(CO)c(S(C)(=O)=O)c3)ccc2-n2cc(C)c(C(F)(F)F)n2)o1 [Example 439, (3-fluoro-4′-(4-methyl-3-(trifluoromethyl)-1H-pyrazol-1-yl)-3′-(2-methyl-4-(4-(trifluoromethoxy)phenyl)oxazol-5-yl)-5-(methylsulfonyl)-[1,1′-biphenyl]-4-yl)methanol]	38 nM	64%
Cc1nc(-c2ccc(OC(F)(F)F)cc2)c(-c2cc(-c3cccc(S(C)(=O)=O)c3)ccc2-n2cc(C)c(C(F)(F)F)n2)o1 [Example 440]	51 nM	62%
Cc1nc(-c2ccc(OC(F)(F)F)cc2)c(-c2cc(-c3cccc(S(C)(=O)=O)c3)ccc2-n2cc(Cl)c(C(C)(C)O)n2)o1 [Example 441, 2-(4-chloro-1-(3-(2-methyl-4-(4-(trifluoromethoxy)phenyl)oxazol-5-yl)-3′-(methylsulfonyl)-[1,1′-biphenyl]-4-yl)-1H-pyrazol-3-yl) propan-2-ol]	176 nM	31%
Cc1nc(-c2ccc(OC(F)(F)F)cc2)c(-c2cc(-c3cccc(S(C)(=O)=O)c3)ccc2-n2ccc(C(C)(F)F)n2)o1 [Example 442, 5-(4-(3-(1,1-difluoroethyl)-1H-pyrazol-1-yl)-3′-(methylsulfonyl)-[1,1′-biphenyl]-3-yl)-2-methyl-4-(4-(trifluoromethoxy)phenyl)oxazole]	52 nM	60%
Cc1nc(-c2ccc(OC(F)(F)F)cc2)c(-c2cc(-c3cc(F)c(CO)c(S(C)(=O)=O)c3)ccc2-n2cc(Cl)c(C(C)(C)O)n2)o1 [Example 443]	22 nM	35%
CNS(=O)(=O)c1cccc(-c2ccc(-n3cc(Cl)c(C(F)(F)F)n3)c(-c3oc(C)nc3-c3ccc(OC(F)(F)F)cc3)c2)c1 [Example 444, 4′-(4-chloro-3-(trifluoromethyl)-1H-pyrazol-1-yl)-N-methyl-3′-(2-methyl-4-(4-(trifluoromethoxy)phenyl)oxazol-5-yl)-[1,1′-biphenyl]-3-sulfonamide]	76 nM	63%
